Assay results as given in ChEMBL document CHEMBL1143689, “Synthesis and biological evaluation of 3-aryl-3-(4-phenoxy)-propionic acid as a novel series of G protein-coupled receptor 40 agonists” (J Med Chem, 2007).

What was measured:
[1] = target: Free fatty acid receptor 1 (Homo sapiens) (UniProt O14842); assay: Agonist activity at human GPR40 expressed in HEK293 cells assessed as calcium flux response relative to linoleic acid; assay type: functional, cell-based; design: concentration or dose not given beside the values
[2] = target: Free fatty acid receptor 1 (Homo sapiens) (UniProt O14842); assay: Agonist activity at human GPR40 expressed in HEK293 cells assessed as effect on calcium flux; assay type: functional, cell-based
[3] = target: Free fatty acid receptor 1 (Mus musculus) (UniProt Q76JU9); assay: Agonist activity at GPR40 in mouse MIN6 cells assessed as stimulation of 25 mM glucose-mediated insulin secretion at 30 uM; assay type: functional, cell-based
[4] = target: Free fatty acid receptor 1 (Mus musculus, UniProt Q76JU9); assay: Agonist activity at GPR40 in mouse MIN6 cells assessed as stimulation of 25 mM glucose-mediated insulin secretion; assay type: functional, cell-based
[5] = Oral bioavailability in rat at 10 mg/kg, po; assay type: ADME, organism-based; details: in vivo
Cytochrome P450 2C19 = Cytochrome P450 2C19 (Homo sapiens, UniProt P33261); assay: Inhibition of human CYP2C19; assay type: ADME
[6] = Tmax in rat at 10 mg/kg, po; assay type: ADME, organism-based; design: dose 10 mg/kg, route oral; details: in vivo
[7] = Cmax in rat at 2 mg/kg, iv; assay type: ADME, organism-based; design: dose 2 mg/kg, route intravenous; details: in vivo
Cytochrome P450 1A2 = target: T1, Cytochrome P450 1A2 (Homo sapiens, UniProt P05177); assay: Inhibition of human CYP1A2; assay type: ADME
T1 sequence (P05177 whole entry): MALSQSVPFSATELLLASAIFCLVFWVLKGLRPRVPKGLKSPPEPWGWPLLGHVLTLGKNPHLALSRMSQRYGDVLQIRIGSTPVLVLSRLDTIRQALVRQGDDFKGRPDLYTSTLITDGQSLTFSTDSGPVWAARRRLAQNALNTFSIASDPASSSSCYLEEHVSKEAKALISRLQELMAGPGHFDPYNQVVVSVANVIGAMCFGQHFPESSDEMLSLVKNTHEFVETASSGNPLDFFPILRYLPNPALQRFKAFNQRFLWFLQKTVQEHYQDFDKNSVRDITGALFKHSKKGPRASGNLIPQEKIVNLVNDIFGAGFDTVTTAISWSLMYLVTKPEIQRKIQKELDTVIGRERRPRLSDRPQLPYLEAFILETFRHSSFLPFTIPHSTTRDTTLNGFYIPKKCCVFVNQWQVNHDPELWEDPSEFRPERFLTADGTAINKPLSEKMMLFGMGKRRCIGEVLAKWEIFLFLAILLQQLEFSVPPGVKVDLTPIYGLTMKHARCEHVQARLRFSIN

[8] = Cmax in rat at 10 mg/kg, po; assay type: ADME, organism-based; design: dose 10 mg/kg, route oral; details: in vivo
Cytochrome P450 3A4 = Cytochrome P450 3A4 (Homo sapiens, UniProt P08684); assay: Inhibition of human CYP3A4; assay type: ADME
[9] = Clearance in rat at 2 mg/kg, iv; assay type: ADME, organism-based; design: dose 2 mg/kg, route intravenous; details: in vivo
[10] = AUC in rat at 2 mg/kg, iv; assay type: ADME, organism-based; design: dose 2 mg/kg, route intravenous; details: plasma
Cytochrome P450 2D6 = Cytochrome P450 2D6 (Homo sapiens, UniProt P10635); assay: Inhibition of human CYP2D6; assay type: ADME
[11] = Tmax in rat at 2 mg/kg, iv; assay type: ADME, organism-based; design: dose 2 mg/kg, route intravenous; details: in vivo
Cytochrome P450 2C9 = Cytochrome P450 2C9 (Homo sapiens, UniProt P11712); assay: Inhibition of human CYP2C9; assay type: ADME
[12] = Half life in rat at 2 mg/kg, iv; assay type: ADME, organism-based; design: dose 2 mg/kg, route intravenous; details: in vivo
[13] = Half life in rat at 10 mg/kg, po; assay type: ADME, organism-based; design: dose 10 mg/kg, route oral; details: in vivo
[14] = AUC in rat at 10 mg/kg, po; assay type: ADME, organism-based; design: dose 10 mg/kg, route oral; details: plasma
[15] = target: Free fatty acid receptor 1 (Mus musculus) (UniProt Q76JU9); assay: Agonist activity at GPR40 in mouse MIN6 cells assessed as stimulation of 5 mM glucose-mediated insulin secretion at 30 uM; assay type: functional, cell-based

Free fatty acid receptor 1 (Homo sapiens), sequence (O14842 whole entry): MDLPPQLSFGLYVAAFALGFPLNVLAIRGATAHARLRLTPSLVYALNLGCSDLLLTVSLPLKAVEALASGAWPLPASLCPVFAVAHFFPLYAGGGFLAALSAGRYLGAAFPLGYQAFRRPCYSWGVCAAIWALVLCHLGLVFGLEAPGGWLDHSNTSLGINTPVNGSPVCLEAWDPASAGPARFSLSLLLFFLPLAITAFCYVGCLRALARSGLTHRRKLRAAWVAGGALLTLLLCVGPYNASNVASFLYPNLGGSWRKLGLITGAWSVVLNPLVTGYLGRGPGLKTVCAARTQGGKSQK
Free fatty acid receptor 1 (Mus musculus), sequence (Q76JU9 whole entry): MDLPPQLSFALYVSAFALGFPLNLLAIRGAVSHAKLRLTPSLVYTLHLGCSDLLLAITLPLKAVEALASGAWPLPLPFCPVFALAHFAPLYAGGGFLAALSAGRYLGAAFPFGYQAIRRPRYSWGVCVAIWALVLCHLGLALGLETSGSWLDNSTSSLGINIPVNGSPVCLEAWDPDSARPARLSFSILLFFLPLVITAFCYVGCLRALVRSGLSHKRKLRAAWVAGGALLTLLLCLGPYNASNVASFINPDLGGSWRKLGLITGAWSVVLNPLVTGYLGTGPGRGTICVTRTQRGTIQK
Cytochrome P450 3A4, sequence (P08684 whole entry): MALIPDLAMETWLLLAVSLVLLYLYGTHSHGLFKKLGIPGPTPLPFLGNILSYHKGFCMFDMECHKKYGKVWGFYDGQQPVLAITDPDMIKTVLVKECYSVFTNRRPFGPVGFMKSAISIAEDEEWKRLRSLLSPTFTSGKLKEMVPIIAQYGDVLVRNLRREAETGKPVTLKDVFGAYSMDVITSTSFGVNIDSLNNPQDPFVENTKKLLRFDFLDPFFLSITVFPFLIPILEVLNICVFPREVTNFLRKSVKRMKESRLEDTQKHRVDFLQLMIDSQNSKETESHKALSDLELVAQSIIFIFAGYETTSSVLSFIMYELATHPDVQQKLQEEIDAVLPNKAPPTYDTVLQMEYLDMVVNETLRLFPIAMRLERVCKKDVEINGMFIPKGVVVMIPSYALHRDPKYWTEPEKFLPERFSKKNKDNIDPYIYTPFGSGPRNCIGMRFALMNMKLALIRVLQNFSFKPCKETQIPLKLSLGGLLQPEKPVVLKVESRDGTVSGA
Free fatty acid receptor 1, sequence (Q76JU9 whole entry): as the sequence (Q76JU9 whole entry) above
Cytochrome P450 2D6, sequence (P10635 whole entry): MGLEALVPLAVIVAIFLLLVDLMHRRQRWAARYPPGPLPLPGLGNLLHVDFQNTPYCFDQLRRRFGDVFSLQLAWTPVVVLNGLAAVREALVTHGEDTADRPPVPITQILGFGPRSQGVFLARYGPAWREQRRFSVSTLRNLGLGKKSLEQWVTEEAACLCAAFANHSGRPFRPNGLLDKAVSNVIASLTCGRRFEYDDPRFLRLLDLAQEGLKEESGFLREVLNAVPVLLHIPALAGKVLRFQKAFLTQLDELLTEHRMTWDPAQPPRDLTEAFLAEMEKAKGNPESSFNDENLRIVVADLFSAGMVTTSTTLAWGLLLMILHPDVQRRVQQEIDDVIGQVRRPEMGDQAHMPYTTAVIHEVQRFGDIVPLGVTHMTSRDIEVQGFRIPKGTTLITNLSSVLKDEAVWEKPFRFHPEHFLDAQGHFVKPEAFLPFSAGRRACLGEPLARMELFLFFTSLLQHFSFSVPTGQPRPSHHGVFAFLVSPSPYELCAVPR
Cytochrome P450 2C19, sequence (P33261 whole entry): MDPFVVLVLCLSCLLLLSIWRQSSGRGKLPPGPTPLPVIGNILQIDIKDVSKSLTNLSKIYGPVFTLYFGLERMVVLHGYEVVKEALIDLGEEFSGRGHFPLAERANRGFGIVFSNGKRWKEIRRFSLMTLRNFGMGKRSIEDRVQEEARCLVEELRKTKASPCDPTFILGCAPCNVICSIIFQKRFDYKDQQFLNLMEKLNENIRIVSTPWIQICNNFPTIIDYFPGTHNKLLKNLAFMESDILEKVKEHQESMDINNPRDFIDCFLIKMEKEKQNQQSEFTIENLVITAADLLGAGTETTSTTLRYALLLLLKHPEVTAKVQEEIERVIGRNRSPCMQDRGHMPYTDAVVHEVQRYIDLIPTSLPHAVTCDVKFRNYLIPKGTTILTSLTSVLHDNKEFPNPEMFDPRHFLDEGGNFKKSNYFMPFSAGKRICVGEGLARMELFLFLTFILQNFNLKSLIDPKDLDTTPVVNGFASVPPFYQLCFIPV
Cytochrome P450 2C9, sequence (P11712 whole entry): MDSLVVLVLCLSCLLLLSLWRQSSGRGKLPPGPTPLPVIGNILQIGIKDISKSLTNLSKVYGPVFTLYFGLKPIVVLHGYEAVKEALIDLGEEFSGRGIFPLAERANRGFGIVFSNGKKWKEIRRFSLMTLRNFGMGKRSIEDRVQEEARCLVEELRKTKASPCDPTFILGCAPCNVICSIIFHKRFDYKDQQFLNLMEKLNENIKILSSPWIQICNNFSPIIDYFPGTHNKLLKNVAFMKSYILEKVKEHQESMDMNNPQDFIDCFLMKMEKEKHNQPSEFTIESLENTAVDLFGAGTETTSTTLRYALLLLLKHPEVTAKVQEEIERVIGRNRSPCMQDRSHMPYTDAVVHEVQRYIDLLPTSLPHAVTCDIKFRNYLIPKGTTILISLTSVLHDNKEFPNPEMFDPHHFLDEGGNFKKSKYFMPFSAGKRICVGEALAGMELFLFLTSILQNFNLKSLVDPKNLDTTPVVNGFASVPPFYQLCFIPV

Row | Compound | Activity [1] | ED50 [2] | further results
1 | CC[C@@H](C)COc1ccc(C(CC(=O)O)c2ccccc2)cc1 (stereo in doubt; 22(A,R)) | 3% | > 10 µM | –
2 | C=C(C)CCOc1ccc(C(CC(=O)O)c2ccccc2)cc1 (stereo not drawn) | 81% | 2.71 µM | –
3 | CCCCOc1ccc(C(CC(=O)O)c2ccccc2)cc1 (stereo not drawn) | 72% | 1.2 µM | –
4 | CC(C)CCOc1ccc(C(CC(=O)O)c2ccccc2)cc1 (stereo not drawn) | 77% | 1.86 µM | –
5 | COCCCOc1ccc(C(CC(=O)O)c2ccccc2)cc1 (stereo not drawn) | 43% | 7.58 µM | –
6 | CCCCOc1ccc(C(CCCC(=O)O)c2ccccc2)cc1 (stereo not drawn) | 3% | > 10 µM | –
7 | CC[C@H](C)COc1ccc(C(CC(=O)O)c2ccccc2)cc1 (stereo in doubt; 22(A,S)) | 2% | > 10 µM | –
8 | CCCCOc1ccc(C(CC(=O)O)c2cccs2)cc1 (stereo not drawn) | 79% | 1.29 µM | Activity [3]: 171%
9 | O=C(O)CC(c1ccccc1)c1ccc(OCCCC(F)(F)F)cc1 (stereo not drawn) | 72% | 3.16 µM | –
10 | C/C=C/COc1ccc(C(CC(=O)O)c2ccccc2)cc1 (stereo not drawn) | 75% | 2.71 µM | –
11 | CCC(CC)COc1ccc(C(CC(=O)O)c2ccccc2)cc1 (stereo not drawn) | 96% | 0.64 µM | EC50 [4]: 2200 nM; Activity [3]: 155%
12 | CCCCCOc1cccc(C(CC(=O)O)c2ccccc2)c1 (stereo not drawn) | 6% | > 10 µM | –
13 | CCCCOc1ccc(C(CC(=O)O)c2cccc(C(F)(F)F)c2)cc1 (stereo not drawn) | 75% | 2.84 µM | –
14 | CCC(C)COc1ccc(C(CC(=O)O)c2ccccc2)cc1 (stereo not drawn) | 98% | 0.3 µM | bioavailability [5]: 87%; IC50 (Cytochrome P450 2C19): > 22 µM; Tmax [6]: 30 min; Cmax [7]: 5780 ng/mL; IC50 (Cytochrome P450 1A2): > 22 µM; Cmax [8]: 4760 ng/mL; IC50 (Cytochrome P450 3A4): > 22 µM; clearance [9]: 13.8 mL/min/kg; AUC [10]: 2480 ng·h/mL; IC50 (Cytochrome P450 2D6): > 22 µM; Tmax [11]: 4.8 min; IC50 (Cytochrome P450 2C9): > 22 µM; half-life [12]: 287 min; half-life [13]: 380 min; AUC [14]: 10700 ng·h/mL
15 | CCCCC/C=C\C/C=C\CCCCCCCC(=O)O | – | – | Activity [15]: 141%; Activity [3]: 172%
16 | CCCCOc1ccc(C(CC(=O)O)c2ccccc2O)cc1 (stereo not drawn) | 66% | 4.8 µM | –
17 | CCCOc1ccc(C(CC(=O)O)c2ccccc2)cc1 (stereo not drawn) | 68% | 4.8 µM | –
18 | CC[C@@H](C)COc1ccc(C(CC(=O)O)c2ccccc2)cc1 (stereo in doubt; 22(B,R)) | 98% | 0.71 µM | –
19 | CCCCCCCOc1ccc(C(CC(=O)O)c2ccccc2)cc1 (stereo not drawn) | 70% | 4.26 µM | –
20 | CCCCCCOc1ccc(C(CC(=O)O)c2ccccc2)cc1 (stereo not drawn) | 68% | 2.88 µM | Activity [3]: 137%
21 | CCCCOc1ccc(C(CC(=O)O)c2ccc(C(F)(F)F)cc2)cc1 (stereo not drawn) | 3% | > 10 µM | –
22 | CCCCCOc1ccc(C(CC(=O)O)c2ccccc2)cc1 (stereo not drawn) | 60% | 2.97 µM | Activity [3]: 122%
23 | CC[C@H](C)COc1ccc(C(CC(=O)O)c2ccccc2)cc1 (stereo in doubt; 22(B,S)) | 94% | 0.56 µM | –
24 | CCCCOc1ccc(C(CC(=O)O)c2cccc(F)c2)cc1 (stereo not drawn) | 81% | 1.44 µM | –
